Patent US12421252B2, “Spiro (isobenzofuranazetidine) compounds for the treatment of autoimmune disease” (Hoffmann-La Roche Inc., priority 2020, dated 2025)

Tests used:
hTLR9 = target: T1, hTLR9 (Homo sapiens, UniProt Q9NR96); design: host or cells: HEK; conditions: data disclosed in US20150105370; read-out: HEK/hTLR9 IC50; cited from earlier work
T1 sequence (Q9NR96 26-1032): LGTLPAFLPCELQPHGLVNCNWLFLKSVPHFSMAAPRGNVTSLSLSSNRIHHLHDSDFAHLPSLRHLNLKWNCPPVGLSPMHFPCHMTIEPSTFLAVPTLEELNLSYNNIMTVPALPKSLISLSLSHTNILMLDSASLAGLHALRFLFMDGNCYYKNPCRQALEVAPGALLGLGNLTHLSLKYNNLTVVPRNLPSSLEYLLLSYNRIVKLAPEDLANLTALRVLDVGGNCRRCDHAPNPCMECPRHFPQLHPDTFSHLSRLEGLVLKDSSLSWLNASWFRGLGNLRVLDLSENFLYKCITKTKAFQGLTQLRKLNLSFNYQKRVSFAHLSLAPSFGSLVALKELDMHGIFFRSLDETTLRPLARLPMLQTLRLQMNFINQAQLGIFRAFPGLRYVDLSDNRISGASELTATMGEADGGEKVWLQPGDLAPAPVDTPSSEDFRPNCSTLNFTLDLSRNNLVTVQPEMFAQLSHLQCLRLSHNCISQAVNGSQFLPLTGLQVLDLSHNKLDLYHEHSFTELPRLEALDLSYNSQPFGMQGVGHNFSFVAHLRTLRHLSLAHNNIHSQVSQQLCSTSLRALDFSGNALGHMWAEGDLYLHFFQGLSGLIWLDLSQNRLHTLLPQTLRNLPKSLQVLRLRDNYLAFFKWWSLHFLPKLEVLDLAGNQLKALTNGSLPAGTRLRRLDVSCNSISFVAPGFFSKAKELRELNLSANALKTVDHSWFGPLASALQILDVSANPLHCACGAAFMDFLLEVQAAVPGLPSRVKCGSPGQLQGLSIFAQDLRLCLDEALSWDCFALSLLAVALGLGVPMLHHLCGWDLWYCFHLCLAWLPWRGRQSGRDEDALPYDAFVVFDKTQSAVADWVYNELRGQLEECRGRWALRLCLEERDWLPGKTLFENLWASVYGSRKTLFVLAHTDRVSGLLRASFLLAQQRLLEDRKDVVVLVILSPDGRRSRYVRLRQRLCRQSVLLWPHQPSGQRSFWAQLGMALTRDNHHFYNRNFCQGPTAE

CYP3A4 = target: T2, CYP3A4 (Homo sapiens, UniProt P08684); assay: CYP inhibition assay in human liver microsome, CYP3A4; type: in vitro ADME; conditions: percentage inhibition, substrate Midazolam 5 μM, <0: not or weak inhibitor
T2 construct: tissue BD-Gentest 452117; host or cells: human liver microsomes
Method: (§1) This is a high throughput screening assay used for assessment of reversible inhibition of CYP2C9, CYP2D6, and CYP3A4 activity of test compounds in human liver microsome (HLM) in early discovery stage.
(§2) Procedure 10 mM DMSO stock solutions of test compounds were diluted in DMSO to generate 2 mM intermediate stock solution. 250 nL of intermediate stock solution were transferred in duplicate into 3 separate 384 well microtitre plates (assay-ready plates). A mixture of HLM and each substrate was made up. 45 μL of HLM substrate mix was then transferred to each well of an assay ready plate and mixed. The negative (solvent) and positive controls (standard inhibitor for each CYP) were included in each assay ready plate. The assay ready plate was warmed to 37° C. in an incubator over 10 minutes. 5 μL pre-warmed NADPH regenerating system was added to each incubation well to start the reaction. Final incubation volume was 50 μL. The assay plate then was placed back in the 37° C. incubator. After incubation (10 minutes for CYP2D6) for 5 minutes, incubates were quenched by addition of 50 μL 100% acetonitrile containing internal standards (400 ng/mL 13C6-4′-OH-Diclofenac, 20 ng/mL D3-Dextrorphan and 20 ng/mL D4-1′OH-Midazolam). The supernatants were collected for RapidFire/MS/MS analysis.
(§3) RapidFire online solid phase extraction/sample injection system (Agilent) coupled with API4000 triple quadrupole mass spectrometer (AB Sciex) were used for sample analysis. The mobile phase composed of acetonitrile and water supplemented with 0.1% formic acid. A C4 solid phase extraction cartridge is used for sample separation. MS detection is achieved in positive ion MRM mode.
(§4) Data analysis Peak areas for substrate, metabolite and internal standard are determined using the RapidFire integrator software (version 3.6.12009.12296). Peak area ratios (PAR) of metabolite and internal standard (stable-labelled metabolite) are then calculated. The measurement window for each experiment is then defined: PAR (0% activity)=average PAR for all incubations containing concentrated inhibitor; Par (100% activity)=average PAR for all incubations containing no inhibitor (DMSO controls); % Activity (test inhibitor)=[PAR (test inhibitor)-PAR (0% activity)]/[PAR (100% activity)-PAR (0% activity)]; % Inhibition (test inhibitor)=100-% Activity (test inhibitor).

CYP2D6 = target: T3, CYP2D6 (Homo sapiens, UniProt P10635); assay: CYP inhibition assay in human liver microsome, CYP2D6; type: in vitro ADME; conditions: percentage inhibition, substrate Dextromethorphan 5 μM, <0: not or weak inhibitor
T3 construct: tissue BD-Gentest 452117; host or cells: human liver microsomes
Method: as §1, §2, §3, §4

CYP2C9 = target: T4, CYP2C9 (Homo sapiens, UniProt P11712); assay: CYP inhibition assay in human liver microsome, CYP2C9; type: in vitro ADME; conditions: percentage inhibition, substrate Diclofenac 5 μM, <0: not or weak inhibitor
T4 construct: tissue BD-Gentest 452117; host or cells: human liver microsomes
Method: as §1, §2, §3, §4

hERG channel = target: T5, hERG channel (Homo sapiens, UniProt Q12809); assay: hERG channel inhibition assay (patch-clamp, CHO hERG cells); type: cell-based; conditions: CHO hERG cells, whole-cell patch-clamp; for IC20: human, CHO cells stably expressing hERG
T5 construct: expressed in transfected cells
Method: hERG Channel Inhibition Assay:
The hERG K+ channels were cloned in humans and stably expressed in a CHO (Chinese hamster ovary) cell line. CHOhERG cells were used for patch-clamp (voltage-clamp, whole-cell) experiments. Cells were stimulated by a voltage pattern to activate hERG channels and conduct IKhERG Currents (rapid delayed outward rectifier potassium current of the hERG channel). After the cells were stabilized for a few minutes, the amplitude and kinetics of IKhERG were recorded at a stimulation frequency of 0.1 Hz, (6 bpm). Thereafter, the test compound was added to the preparation at increasing concentrations. For each concentration, an attempt was made to reach a steady-state effect, usually, this was achieved within 3-10 min at which time the next highest concentration was applied. The amplitude and kinetics of IKhERG are recorded in each concentration of the drug which were compared to the control values (taken as 100%). (references: Redfern W S, Carlsson L, Davis A S, Lynch W G, MacKenzie I, Palethorpe S, Siegl P K, Strang I, Sullivan A T, Wallis R, Camm A J, Hammond T G. 2003; Relationships between preclinical cardiac electrophysiology, clinical QT interval prolongation and torsade de pointes for a broad range of drugs: evidence for a provisional safety margin in drug development. Cardiovasc. Res. 58:32-45, Sanguinetti M C, Tristani-Firouzi M. 2006; hERG potassium channels and cardiac arrhythmia. Nature 440:463-469, Webster R, Leishman D, Walker D. 2002; Towards a drug concentration effect relationship for QT prolongation and torsades de pointes. Curr. Opin. Drug Discov. Devel. 5:116-26).

human TLR8 = target: T6, human TLR8 (Homo sapiens, UniProt Q9NR97); assay: HEK293-Blue-hTLR-8 cells assay; type: cell-based; conditions: HEK293-Blue-hTLR8 cells, R848 stimulation, 20 hrs, SEAP reporter; read-out: HEK/hTLR8 IC50
T6 sequence (Q9NR97 27-1041): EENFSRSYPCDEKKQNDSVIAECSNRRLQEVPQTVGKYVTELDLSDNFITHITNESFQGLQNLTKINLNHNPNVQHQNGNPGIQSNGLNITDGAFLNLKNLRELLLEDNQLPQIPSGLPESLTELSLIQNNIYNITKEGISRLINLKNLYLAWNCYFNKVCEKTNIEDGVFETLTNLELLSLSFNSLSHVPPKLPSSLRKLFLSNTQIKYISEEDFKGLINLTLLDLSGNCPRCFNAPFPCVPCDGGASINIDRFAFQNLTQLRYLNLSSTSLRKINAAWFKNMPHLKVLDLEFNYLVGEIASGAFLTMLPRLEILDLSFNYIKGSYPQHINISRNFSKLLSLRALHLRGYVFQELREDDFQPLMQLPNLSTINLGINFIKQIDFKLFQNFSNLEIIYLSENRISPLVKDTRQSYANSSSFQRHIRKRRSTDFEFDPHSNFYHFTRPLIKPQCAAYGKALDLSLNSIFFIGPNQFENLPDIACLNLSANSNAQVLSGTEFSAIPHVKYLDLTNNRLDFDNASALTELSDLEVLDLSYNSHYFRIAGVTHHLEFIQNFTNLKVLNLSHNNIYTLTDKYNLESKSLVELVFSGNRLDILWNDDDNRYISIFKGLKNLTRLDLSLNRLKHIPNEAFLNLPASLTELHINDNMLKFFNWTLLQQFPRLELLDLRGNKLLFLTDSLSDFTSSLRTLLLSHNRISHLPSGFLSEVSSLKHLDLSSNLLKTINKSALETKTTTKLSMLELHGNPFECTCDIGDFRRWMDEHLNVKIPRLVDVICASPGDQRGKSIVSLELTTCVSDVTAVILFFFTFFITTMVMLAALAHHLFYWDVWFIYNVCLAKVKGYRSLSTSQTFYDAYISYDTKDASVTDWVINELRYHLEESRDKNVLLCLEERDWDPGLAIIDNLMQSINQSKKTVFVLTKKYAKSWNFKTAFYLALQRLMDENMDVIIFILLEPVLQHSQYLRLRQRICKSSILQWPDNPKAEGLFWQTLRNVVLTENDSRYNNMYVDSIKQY
Source text: HEK293-Blue-hTLR-8 cells assay:
A stable HEK293-Blue-hTLR-8 cell line was purchased from InvivoGen (Cat. #: hkb-htlr8, San Diego, California, USA). These cells were originally designed for studying the stimulation of human TLR8 by monitoring the activation of NF-κB. A SEAP (secreted embryonic alkaline phosphatase) reporter gene was placed under the control of the IFN-β minimal promoter fused to five NF-κB and AP-1-binding sites. The SEAP was induced by activating NF-κB and AP-1 via stimulating HEK-Blue hTLR8 cells with TLR8 ligands. Therefore the reporter expression was declined by TLR8 antagonist under the stimulation of a ligand, such as R848, for incubation of 20 hrs. The cell culture supernatant SEAP reporter activity was determined using QUANTI-Blue™kit (Cat. #: rep-qb1, Invivogen, San Diego, Ca, USA) at a wavelength of 640 nm, a detection medium that turns purple or blue in the presence of alkaline phosphatase.
HEK293-Blue-hTLR8 cells were incubated at a density of 250,000˜450,000 cells/mL in a volume of 170 μL in a 96-well plate in Dulbecco's Modified Eagle's medium (DMEM) containing 4.5 g/L glucose, 50 U/mL penicillin, […], […], 2 mM L-glutamine, 10% (v/v) heat-inactivated fetal bovine serum with addition of 20 μL test compound in a serial dilution in the presence of final DMSO at 1% and 10 μL of 60 uM R848 in above DMEM, perform incubation under 37° C. in a CO2 incubator for 20 hrs. Then 20 μL of the supernatant from each well was incubated with 180 μL Quanti-blue substrate solution at 37° C. for 2 hrs and the absorbance was read at 620-655 nm using a spectrophotometer. The signaling pathway that TLR8 activation leads to downstream NF-κB activation has been widely accepted, and therefore similar reporter assay was modified for evaluating TLR8 antagonist.

T5 sequence (Q12809 whole entry): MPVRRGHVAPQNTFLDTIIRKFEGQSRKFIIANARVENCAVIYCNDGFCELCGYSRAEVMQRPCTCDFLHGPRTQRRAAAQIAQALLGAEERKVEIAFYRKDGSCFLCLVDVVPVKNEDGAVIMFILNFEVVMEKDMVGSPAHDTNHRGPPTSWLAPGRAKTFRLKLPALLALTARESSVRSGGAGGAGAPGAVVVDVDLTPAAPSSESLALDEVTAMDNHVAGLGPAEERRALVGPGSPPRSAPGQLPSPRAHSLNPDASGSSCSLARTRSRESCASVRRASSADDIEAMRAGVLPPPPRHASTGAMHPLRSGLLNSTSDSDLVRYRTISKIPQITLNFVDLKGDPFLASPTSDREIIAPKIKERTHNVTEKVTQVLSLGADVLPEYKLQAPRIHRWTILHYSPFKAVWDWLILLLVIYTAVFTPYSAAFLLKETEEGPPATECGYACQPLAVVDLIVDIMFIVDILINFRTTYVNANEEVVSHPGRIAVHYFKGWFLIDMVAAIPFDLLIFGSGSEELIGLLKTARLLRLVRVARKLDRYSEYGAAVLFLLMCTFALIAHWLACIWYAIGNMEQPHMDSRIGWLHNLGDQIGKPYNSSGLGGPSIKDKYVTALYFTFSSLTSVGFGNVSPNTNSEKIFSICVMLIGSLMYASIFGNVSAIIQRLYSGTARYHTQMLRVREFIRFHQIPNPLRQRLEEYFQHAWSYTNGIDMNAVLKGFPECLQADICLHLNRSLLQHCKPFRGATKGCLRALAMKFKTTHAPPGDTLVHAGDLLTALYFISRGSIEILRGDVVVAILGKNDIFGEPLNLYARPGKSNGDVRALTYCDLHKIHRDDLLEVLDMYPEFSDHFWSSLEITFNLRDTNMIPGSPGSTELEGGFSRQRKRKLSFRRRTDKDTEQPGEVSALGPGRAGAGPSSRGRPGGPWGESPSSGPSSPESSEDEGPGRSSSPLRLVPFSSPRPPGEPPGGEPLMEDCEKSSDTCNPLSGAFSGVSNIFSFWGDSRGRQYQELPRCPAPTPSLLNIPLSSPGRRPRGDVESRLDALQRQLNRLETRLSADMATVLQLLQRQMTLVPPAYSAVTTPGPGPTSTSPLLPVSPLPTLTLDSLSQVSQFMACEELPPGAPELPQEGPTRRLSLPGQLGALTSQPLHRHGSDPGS
T4 sequence (P11712 whole entry): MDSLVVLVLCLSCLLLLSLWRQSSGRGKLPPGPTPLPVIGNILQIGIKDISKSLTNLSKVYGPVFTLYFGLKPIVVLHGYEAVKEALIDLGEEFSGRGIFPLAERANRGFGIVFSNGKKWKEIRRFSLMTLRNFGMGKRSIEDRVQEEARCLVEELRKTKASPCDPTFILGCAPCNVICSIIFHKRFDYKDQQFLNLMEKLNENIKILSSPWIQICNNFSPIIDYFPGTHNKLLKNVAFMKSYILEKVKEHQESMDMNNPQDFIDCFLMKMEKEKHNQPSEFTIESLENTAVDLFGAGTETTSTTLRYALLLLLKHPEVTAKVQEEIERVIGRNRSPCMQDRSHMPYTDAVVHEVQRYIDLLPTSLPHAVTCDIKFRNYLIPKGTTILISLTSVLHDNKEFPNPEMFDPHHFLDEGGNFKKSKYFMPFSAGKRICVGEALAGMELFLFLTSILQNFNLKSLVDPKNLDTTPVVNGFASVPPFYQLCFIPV
T3 sequence (P10635 whole entry): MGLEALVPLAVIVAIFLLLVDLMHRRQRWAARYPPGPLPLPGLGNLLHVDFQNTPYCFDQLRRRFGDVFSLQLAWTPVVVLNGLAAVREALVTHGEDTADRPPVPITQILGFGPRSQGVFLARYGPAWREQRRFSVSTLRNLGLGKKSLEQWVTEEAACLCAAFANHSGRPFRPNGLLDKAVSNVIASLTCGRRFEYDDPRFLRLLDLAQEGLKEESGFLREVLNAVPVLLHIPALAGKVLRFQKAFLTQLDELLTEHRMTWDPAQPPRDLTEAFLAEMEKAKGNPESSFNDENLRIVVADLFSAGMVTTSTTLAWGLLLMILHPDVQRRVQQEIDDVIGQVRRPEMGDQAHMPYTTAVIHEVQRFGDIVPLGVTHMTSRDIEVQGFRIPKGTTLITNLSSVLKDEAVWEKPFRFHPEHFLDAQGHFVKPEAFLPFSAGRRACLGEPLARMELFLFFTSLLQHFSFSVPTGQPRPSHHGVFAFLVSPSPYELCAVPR
T2 sequence (P08684 whole entry): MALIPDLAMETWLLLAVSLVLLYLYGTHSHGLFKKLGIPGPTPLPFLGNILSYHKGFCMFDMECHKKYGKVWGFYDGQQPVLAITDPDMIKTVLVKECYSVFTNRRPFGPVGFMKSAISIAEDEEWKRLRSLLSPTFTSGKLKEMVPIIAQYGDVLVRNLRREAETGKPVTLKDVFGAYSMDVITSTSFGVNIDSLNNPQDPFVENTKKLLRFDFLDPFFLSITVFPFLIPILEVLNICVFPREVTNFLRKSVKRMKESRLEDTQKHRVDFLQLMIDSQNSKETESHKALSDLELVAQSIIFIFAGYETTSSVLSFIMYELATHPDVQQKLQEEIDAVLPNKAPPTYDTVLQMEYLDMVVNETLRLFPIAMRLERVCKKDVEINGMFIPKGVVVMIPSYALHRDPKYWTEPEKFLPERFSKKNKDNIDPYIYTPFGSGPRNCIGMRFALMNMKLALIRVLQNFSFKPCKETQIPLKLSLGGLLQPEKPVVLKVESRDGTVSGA

Structure (SMILES): C[C@@H]1CN(c2ccc(C#N)c3ncccc23)C[C@H](CN2CC(NS(=O)(=O)c3ccc(F)cc3)C2)O1 [ER-894155]
- IC50 (hTLR9): > 10 µM

Structure (SMILES): Cc1nn(C)cc1S(=O)(=O)NC1CCN(C[C@H]2CN(c3ccc(C#N)c4ncccc34)C[C@@H](C)O2)CC1 [ER-894160]
- IC50 (hTLR9): > 10 µM

Structure (SMILES): C[C@@H]1CN(c2ccc(C#N)c3ncccc23)C[C@H](CN2CC[C@@H](NC(=O)c3ccccc3)C2)O1 [ER-894544]
- IC50 (hTLR9): > 6.2 µM

Structure (SMILES): C[C@@H]1CN(c2ccc(C#N)n3nccc23)C[C@H](CN2CC3(C2)OCc2cc(N4CC5(CN(C)C5)C4)ccc23)O1 [Example 8, 4-[(2R,6S)-2-methyl-6-[[6-(6-methyl-2,6-diazaspiro[3.3]heptan-2-yl)spiro[1H-isobenzofuran-3,3′-azetidine]-1′-yl]methyl]morpholin-4-yl]pyrazolo[1,5-a]pyridine-7-carbonitrile]
- CYP (%) 3A4 (CYP3A4): −8.5%
- CYP (%) 2D6 (CYP2D6): 5%
- CYP (%) 2C9 (CYP2C9): −8.5%

Structure (SMILES): [2H]c1ccc2c(N3C[C@H](CN4CC5(C4)OCc4cc(N6CC(C)(N)C6)ccc45)O[C@H](C)C3)ccc(C#N)c2n1 [Example 11, 5-[(2S,6R)-2-[[6-(3-amino-3-methyl-azetidin-1-yl)spiro[1H-isobenzofuran-3,3′-azetidine]-1′-yl]methyl]-6-methyl-morpholin-4-yl]-2-deuterio-quinoline-8-carbonitrile]
- IC50 (hERG channel): > 20 µM
- IC20 (hERG channel): 6.2 µM
- CYP (%) 3A4 (CYP3A4): 12%
- CYP (%) 2D6 (CYP2D6): 5.5%
- CYP (%) 2C9 (CYP2C9): 4%

Structure (SMILES): [2H]c1ccc2c(N3C[C@H](CN4CC5(C4)OCc4cc(N6CC(N)C6)ccc45)O[C@H](C)C3)ccc(C#N)c2n1 [Example 14, 5-[(2S,6R)-2-[[6-(3-aminoazetidin-1-yl)spiro[1H-isobenzofuran-3,3′-azetidine]-1′-yl]methyl]-6-methyl-morpholin-4-yl]-2-deuterio-quinoline-8-carbonitrile]
- IC50 (hERG channel): > 20 µM
- IC20 (hERG channel): > 10 µM

Structure (SMILES): [2H]c1ccc2c(N3C[C@H](CN4CC5(C4)OCc4cc(N6CC7(CNCCO7)C6)ccc45)O[C@H](C)C3)ccc(C#N)c2n1 [Example 15, 2-deuterio-5-[(2R,6S)-2-methyl-6-[[6-(5-oxa-2,8-diazaspiro[3.5]nonan-2-yl)spiro[1H-isobenzofuran-3,3′-azetidine]-1′-yl]methyl]morpholin-4-yl]quinoline-8-carbonitrile]
- IC50 (human TLR8): 9 nM
